The text below walks through data of patent publication US11591354B2, “Thiamine compound, preparation method and pharmaceutical composition thereof” (SHANGHAI RAISING PHARMACEUTICAL CO., LTD., priority 2018, dated 2023).

The test system of one experiment is Aβ40. As to the kind of experiment: Aβ40 content secreted by HEK293APP/sw overexpression cells after compound treatment (ELISA of supernatant). The note with it: 24 h; for Aβ40 content: APP/293 (HEK293APP/sw) cells, test sample 400 μM, culture supernatant, adjusted by total protein concentration, blank 127.81; for content of Aβ40 compared with benfotiamine in Comparative Example 2: APP/293 cells, 400 μM, in words. Format: cell-based. On the procedure: (§1) (1) A BCA Protein Concentration Kit was purchased from Beyotime Biotechnology, a detection kit for Aβ40 and Aβ42 was purchased from Wako Co., Ltd., and cell culture related reagents were purchased from Gibico Co., Ltd.
(§2) (2) HEK293APP/sw overexpression cell culture: cells were cultured in a 48-well plate in DMEM culture medium (containing 10% FBS, 100 μg/mL G418 (Geneticin) and diabody), 4 mM stock solution of a test sample (prepared by dissolving the test sample in DMEM culture medium) was diluted to 400 μM in DMEM culture medium at a cell density of 70%, to each well was added 500 μL of the test sample, and the cells were cultured for 24 h.
(§3) (3) To the culture solution supernatant was added a BCA reagent, after incubating for 30 min at room temperature, absorbance of each well was measured at OD […] with a microplate reader, and a total protein concentration was calculated according to a protein standard curve; concentrations of Aβ40 and Aβ42 were measured with supernatant: the supernatant was added into a coated 96-well plate, followed by incubating overnight at 4° C., the reagent was removed and washed, HRP (horseradish peroxidase) labeled antibody was added, followed by incubating for 2 h at 4° C., the reagent was removed and washed, a TMB color developing solution was added, followed by incubating for 30 min at room temperature, a stop solution was added to stop reaction, absorbance of each well was measured at OD […] with a microplate reader, concentrations of Aβ40 and Aβ42 were calculated according to standard curves of A40 and Aβ42 respectively, and finally the concentrations of Aβ40 and Aβ42 were adjusted by using a total protein concentration to obtain a final concentration.
On the technique in general: ELISA stands for enzyme-linked immunosorbent assay.

Another experiment concerns Aβ42. The experiment in a line: Aβ42 content secreted by HEK293APP/sw overexpression cells after compound treatment (ELISA of supernatant). Format: cell-based. Conditions: 24 h; for Aβ42 content: APP/293 (HEK293APP/sw) cells, test sample 400 μM, culture supernatant, adjusted by total protein concentration, blank 11.08; for content of Aβ42 compared with benfotiamine in Comparative Example 2: APP/293 cells, 400 μM, in words. On the procedure:
as §1, §2, §3

The structures appear in SMILES notation.

Consider `C/C(=C(\CCOP(=O)(O)O)SC(=O)c1ccccc1)N(C=O)Cc1cnc(C)nc1N` [Comparative Example 2, benfotiamine, reference compound], for which, in the experiment with Aβ40, the Aβ40 content amounted to 53.77 pmol/L. Besides, the Aβ42 content with Aβ42 came out at 5.04 pmol/L.

`CCCC(=O)S/C(CCOP(=O)(O)O)=C(/C)N(C=O)Cc1cnc(C)nc1N` [Example 1, (Z)—S-(2-(N-((4-amino-2-methylpyrimidin-5-yl)methyl) formamido)-5-(phosphonooxy)pent-2-en-3-yl) butanethioate] yielded an Aβ40 content in the experiment on Aβ40 of 45.47 pmol/L. This compound also yielded an Aβ42 content with Aβ42 of 8.59 pmol/L.

In the experiment with Aβ40, `CCCCCCCCCC(=O)S/C(CCOP(=O)(O)O)=C(/C)N(C=O)Cc1cnc(C)nc1N` [Example 2, (Z)—S-(2-(N-((4-amino-2-methylpyrimidin-5-yl)methyl) formamido)-5-(phosphonooxy)pent-2-en-3-yl) decanethioate] returned an Aβ40 content of 75.15 pmol/L. In the experiment on Aβ42, the Aβ42 content came to 5.37 pmol/L.

As to `CCCCCCCCCCCC(=O)S/C(CCOP(=O)(O)O)=C(/C)N(C=O)Cc1cnc(C)nc1N` [Example 3, (Z)—S-(2-(N-((4-amino-2-methylpyrimidin-5-yl)methyl) formamido)-5-(phosphonooxy)pent-2-en-3-yl) dodecanethioate], the Aβ40 content in the experiment with Aβ40 was determined as 128.90 pmol/L. Further, the Aβ42 content in the experiment with Aβ42 is recorded as 4.93 pmol/L.

For `C/C=C(\C)C(=O)S/C(CCOP(=O)(O)O)=C(/C)N(C=O)Cc1cnc(C)nc1N` [Example 4, (E)-S—((Z)-2-(N-((4-amino-2-methylpyrimidin-5-yl)methyl) formamido)-5-(phosphonooxy)pent-2-en-3-yl) 2-methylbut-2-enethioate], in the experiment on Aβ40, the Aβ40 content was 71.80 pmol/L. Besides, in the experiment on Aβ42, the Aβ42 content is 5.77 pmol/L.

With `CCC(C)C(=O)S/C(CCOP(=O)(O)O)=C(/C)N(C=O)Cc1cnc(C)nc1N` (stereo not drawn) [Example 5, (Z)—S-(2-(N-((4-amino-2-methylpyrimidin-5-yl)methyl) formamido)-5-(phosphonooxy)pent-2-en-3-yl) 2-methylbutanethioate], in the experiment on Aβ40, the Aβ40 content was 37.65 pmol/L and the “content of Aβ40 compared with benfotiamine in Comparative Example 2” value is “significantly reduced”. Moreover, in the experiment on Aβ42, the Aβ42 content came out at 2.09 pmol/L and the “content of Aβ42 compared with benfotiamine in Comparative Example 2” value is given as “significantly reduced”.

For the compound `C/C(=C(\CCOP(=O)(O)O)SC(=O)C(C)C)N(C=O)Cc1cnc(C)nc1N` [Example 6, (Z)—S-(2-(N-((4-amino-2-methylpyrimidin-5-yl)methyl) formamido)-5-(phosphonooxy)pent-2-en-3-yl) 2-methylpropanethioate], in the experiment on Aβ40, the Aβ40 content is listed as 44.38 pmol/L and the “content of Aβ40 compared with benfotiamine in Comparative Example 2” value is given as “significantly reduced”. Also, in the experiment on Aβ42, the Aβ42 content came to 2.41 pmol/L and the “content of Aβ42 compared with benfotiamine in Comparative Example 2” value is on record as “significantly reduced”.

`CCCCCCCC(=O)S/C(CCOP(=O)(O)O)=C(/C)N(C=O)Cc1cnc(C)nc1N` [Example 7, (Z)—S-(2-(N-((4-amino-2-methylpyrimidin-5-yl)methyl) formamido)-5-(phosphonooxy)pent-2-en-3-yl) octanethioate]: the Aβ40 content with Aβ40 is on record as 106.81 pmol/L. The Aβ42 content in the experiment with Aβ42 is 6.09 pmol/L.

In turn, `C/C(=C(\CCOP(=O)(O)O)SC(=O)CCc1ccccc1)N(C=O)Cc1cnc(C)nc1N` [Example 8, (Z)—S-(2-(N-((4-amino-2-methylpyrimidin-5-yl)methyl) formamido)-5-(phosphonooxy)pent-2-en-3-yl) 3-phenylpropanethioate] came in with an Aβ40 content in the experiment with Aβ40 of 57.86 pmol/L. In the experiment on Aβ42, this compound yielded an Aβ42 content of 6.38 pmol/L.

With `C=CCCCC(=O)S/C(CCOP(=O)(O)O)=C(/C)N(C=O)Cc1cnc(C)nc1N` [Example 9, (Z)—S-(2-(N-((4-amino-2-methylpyrimidin-5-yl)methyl) formamido)-5-(phosphonooxy)pent-2-en-3-yl) hex-5-enethioate], in the experiment with Aβ40, the Aβ40 content is on record as 80.40 pmol/L. The compound also showed an Aβ42 content in the experiment on Aβ42 of 5.70 pmol/L.

`C/C(=C(\CCOP(=O)(O)O)SC(=O)Cc1c(F)cccc1F)N(C=O)Cc1cnc(C)nc1N` [Example 10, (Z)—S-(2-(N-((4-amino-2-methylpyrimidin-5-yl)methyl) formamido)-5-(phosphonooxy)pent-2-en-3-yl) 2-(2,6-difluorophenyl) ethanethioate] displayed an Aβ40 content in the experiment with Aβ40 of 71.11 pmol/L. Further, the Aβ42 content in the experiment with Aβ42 came to 10.62 pmol/L.

For the compound `C=CC(C)(C)C(=O)S/C(CCOP(=O)(O)O)=C(/C)N(C=O)Cc1cnc(C)nc1N` [Example 11, (Z)—S-(2-(N-((4-amino-2-methylpyrimidin-5-yl)methyl) formamido)-5-(phosphonooxy)pent-2-en-3-yl) 2,2-dimethylbut-3-enethioate], in the experiment on Aβ40, the Aβ40 content is 54.75 pmol/L and the “content of Aβ40 compared with benfotiamine in Comparative Example 2” value is recorded as “substantially the same”. In the experiment on Aβ42, the Aβ42 content was found to be 3.22 pmol/L and the “content of Aβ42 compared with benfotiamine in Comparative Example 2” value is reported as “reduced”.

As for `CCC/C=C/C(=O)S/C(CCOP(=O)(O)O)=C(/C)N(C=O)Cc1cnc(C)nc1N` [Example 12, (E)-S—((Z)-2-(N-((4-amino-2-methylpyrimidin-5-yl)methyl) formamido)-5-(phosphonooxy)pent-2-en-3-yl) hex-2-enethioate], in the experiment on Aβ40, the Aβ40 content was determined as 32.87 pmol/L and the “content of Aβ40 compared with benfotiamine in Comparative Example 2” value is on record as “significantly reduced”. In the experiment with Aβ42, the Aβ42 content was 0.34 pmol/L and the “content of Aβ42 compared with benfotiamine in Comparative Example 2” value is on record as “significantly reduced”.

In the case of `CCCCC(CC)C(=O)S/C(CCOP(=O)(O)O)=C(/C)N(C=O)Cc1cnc(C)nc1N` (stereo not drawn) [Example 13, (Z)—S-(2-(N-((4-amino-2-methylpyrimidin-5-yl)methyl) formamido)-5-(phosphonooxy)pent-2-en-3-yl) 2-ethylhexanethioate], the Aβ40 content with Aβ40 is given as 56.28 pmol/L. This compound also had an Aβ42 content in the experiment on Aβ42 of 24.36 pmol/L.

`CCCC(C)C(=O)S/C(CCOP(=O)(O)O)=C(/C)N(C=O)Cc1cnc(C)nc1N` (stereo not drawn) [Example 14, (Z)—S-(2-(N-((4-amino-2-methylpyrimidin-5-yl)methyl) formamido)-5-(phosphonooxy)pent-2-en-3-yl) 2-methylpentanethioate] yielded an Aβ40 content in the experiment on Aβ40 of 60.34 pmol/L. For the same compound, the Aβ42 content in the experiment on Aβ42 amounted to 6.79 pmol/L.

On to `CCCCC(C)C(=O)S/C(CCOP(=O)(O)O)=C(/C)N(C=O)Cc1cnc(C)nc1N` (stereo not drawn) [Example 15, (Z)—S-(2-(N-((4-amino-2-methylpyrimidin-5-yl)methyl) formamido)-5-(phosphonooxy)pent-2-en-3-yl) 2-methylhexanethioate], for which the Aβ40 content in the experiment on Aβ40 was 40.39 pmol/L. Further, in the experiment with Aβ42, the Aβ42 content amounted to 9.59 pmol/L.

Take `CCC(C)(C)C(=O)S/C(CCOP(=O)(O)O)=C(/C)N(C=O)Cc1cnc(C)nc1N` [Example 16, (Z)—S-(2-(N-((4-amino-2-methylpyrimidin-5-yl)methyl) formamido)-5-(phosphonooxy)pent-2-en-3-yl) 2,2-dimethylbutanethioate]: in the experiment with Aβ40, the Aβ40 content was determined as 85.96 pmol/L. The same compound returned an Aβ42 content in the experiment on Aβ42 of 33.70 pmol/L.

For the compound `CCCCC(C)(C)C(=O)S/C(CCOP(=O)(O)O)=C(/C)N(C=O)Cc1cnc(C)nc1N` [Example 17, (Z)—S-(2-(N-((4-amino-2-methylpyrimidin-5-yl)methyl) formamido)-5-(phosphonooxy)pent-2-en-3-yl) 2,2-dimethylhexanethioate], in the experiment on Aβ40, the Aβ40 content was 77.22 pmol/L. This compound also gave an Aβ42 content in the experiment on Aβ42 of 6.24 pmol/L.
